Results on 27 compounds are retold here after patent publication US10239869B2, “Sulfonamide compounds as voltage-gated sodium channel modulators” (LUPIN LIMITED, priority 2015, dated 2019).

The target of one series is Nav 1.7 (Homo sapiens (Human), UniProt Q15858). Kind of series: Inhibition of sodium channels, Red Membrane Potential Dye FLIPR assay, veratridine depolarization. In kind it is cell-based. As to conditions: HEK-293 cells overexpressing the channel; for IC50: read-out: Nav1.7 IC50.
Chain of Nav 1.7 (Q15858 whole entry): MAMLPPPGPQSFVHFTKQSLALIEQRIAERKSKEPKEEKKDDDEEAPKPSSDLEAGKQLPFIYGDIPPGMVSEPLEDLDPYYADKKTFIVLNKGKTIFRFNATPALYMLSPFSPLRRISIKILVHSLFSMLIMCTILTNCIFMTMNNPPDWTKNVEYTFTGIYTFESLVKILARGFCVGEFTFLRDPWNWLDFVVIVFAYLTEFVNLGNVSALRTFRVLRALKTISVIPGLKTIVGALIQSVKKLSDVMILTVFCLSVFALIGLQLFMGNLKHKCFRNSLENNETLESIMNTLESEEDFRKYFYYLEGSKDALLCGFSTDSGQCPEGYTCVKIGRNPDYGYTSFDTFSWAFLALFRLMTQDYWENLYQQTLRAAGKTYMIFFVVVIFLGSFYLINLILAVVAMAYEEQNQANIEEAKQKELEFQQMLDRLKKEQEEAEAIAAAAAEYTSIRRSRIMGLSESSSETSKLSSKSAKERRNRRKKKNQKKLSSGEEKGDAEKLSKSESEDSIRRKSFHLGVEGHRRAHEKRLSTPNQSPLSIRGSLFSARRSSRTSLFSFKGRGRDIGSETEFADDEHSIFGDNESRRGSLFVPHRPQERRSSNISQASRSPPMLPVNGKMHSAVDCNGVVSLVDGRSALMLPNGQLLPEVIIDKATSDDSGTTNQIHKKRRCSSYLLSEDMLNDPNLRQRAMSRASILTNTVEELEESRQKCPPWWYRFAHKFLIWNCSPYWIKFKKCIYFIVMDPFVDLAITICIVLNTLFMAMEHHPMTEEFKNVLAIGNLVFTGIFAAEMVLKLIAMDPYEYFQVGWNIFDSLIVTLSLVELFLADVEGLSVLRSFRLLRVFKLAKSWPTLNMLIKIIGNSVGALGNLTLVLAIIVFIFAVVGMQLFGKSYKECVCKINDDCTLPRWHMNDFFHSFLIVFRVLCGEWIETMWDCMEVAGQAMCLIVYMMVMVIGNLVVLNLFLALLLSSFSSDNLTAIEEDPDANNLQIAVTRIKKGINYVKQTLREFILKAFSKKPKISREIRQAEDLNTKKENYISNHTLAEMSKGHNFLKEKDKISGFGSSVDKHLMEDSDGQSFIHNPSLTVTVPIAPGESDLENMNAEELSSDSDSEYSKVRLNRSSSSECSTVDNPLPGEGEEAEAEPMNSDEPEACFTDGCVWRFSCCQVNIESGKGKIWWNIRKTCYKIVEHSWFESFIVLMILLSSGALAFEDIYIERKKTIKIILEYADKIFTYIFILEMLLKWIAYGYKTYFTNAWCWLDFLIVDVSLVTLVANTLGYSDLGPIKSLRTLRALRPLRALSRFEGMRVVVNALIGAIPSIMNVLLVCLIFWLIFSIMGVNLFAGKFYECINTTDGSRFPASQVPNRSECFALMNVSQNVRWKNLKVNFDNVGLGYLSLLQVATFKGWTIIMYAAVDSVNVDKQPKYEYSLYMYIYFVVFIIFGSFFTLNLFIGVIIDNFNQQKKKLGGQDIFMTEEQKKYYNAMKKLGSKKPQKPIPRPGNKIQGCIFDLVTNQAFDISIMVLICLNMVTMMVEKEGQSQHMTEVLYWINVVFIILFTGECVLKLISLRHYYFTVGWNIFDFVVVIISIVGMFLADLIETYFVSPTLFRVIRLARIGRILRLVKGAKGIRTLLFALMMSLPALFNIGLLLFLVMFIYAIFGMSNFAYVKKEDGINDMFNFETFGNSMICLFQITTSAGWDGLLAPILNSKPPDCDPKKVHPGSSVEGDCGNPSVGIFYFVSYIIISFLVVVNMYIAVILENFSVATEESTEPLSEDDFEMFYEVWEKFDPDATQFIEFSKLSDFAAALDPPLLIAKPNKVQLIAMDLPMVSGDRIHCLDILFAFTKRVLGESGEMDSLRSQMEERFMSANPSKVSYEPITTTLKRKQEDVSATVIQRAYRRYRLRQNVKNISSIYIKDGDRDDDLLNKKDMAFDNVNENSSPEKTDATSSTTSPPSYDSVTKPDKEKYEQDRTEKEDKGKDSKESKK
A further series concerns the target Nav 1.5 (Homo sapiens (Human), UniProt Q14524). The series is described as above. As to conditions: HEK-293 cells overexpressing the channel; for inhibition at 10 µM: HEK-293 cells overexpressing Nav 1.5. The format is cell-based.
The mark [1] stands for this setting: read-out: Nav1.5 IC50 (bound given in μM).

Broadly, the IC50 is the point on the concentration scale where inhibition reaches its midpoint. By inhibition is commonly meant the relative decrease from the control value, in per cent. Low readings indicate a response near the control, high ones a response far below the control.

Like-named read-outs stand apart in the source and are kept apart here. Where only a bound is given, the exact number is not on record here.

Chain of Nav 1.5 (Q14524 whole entry): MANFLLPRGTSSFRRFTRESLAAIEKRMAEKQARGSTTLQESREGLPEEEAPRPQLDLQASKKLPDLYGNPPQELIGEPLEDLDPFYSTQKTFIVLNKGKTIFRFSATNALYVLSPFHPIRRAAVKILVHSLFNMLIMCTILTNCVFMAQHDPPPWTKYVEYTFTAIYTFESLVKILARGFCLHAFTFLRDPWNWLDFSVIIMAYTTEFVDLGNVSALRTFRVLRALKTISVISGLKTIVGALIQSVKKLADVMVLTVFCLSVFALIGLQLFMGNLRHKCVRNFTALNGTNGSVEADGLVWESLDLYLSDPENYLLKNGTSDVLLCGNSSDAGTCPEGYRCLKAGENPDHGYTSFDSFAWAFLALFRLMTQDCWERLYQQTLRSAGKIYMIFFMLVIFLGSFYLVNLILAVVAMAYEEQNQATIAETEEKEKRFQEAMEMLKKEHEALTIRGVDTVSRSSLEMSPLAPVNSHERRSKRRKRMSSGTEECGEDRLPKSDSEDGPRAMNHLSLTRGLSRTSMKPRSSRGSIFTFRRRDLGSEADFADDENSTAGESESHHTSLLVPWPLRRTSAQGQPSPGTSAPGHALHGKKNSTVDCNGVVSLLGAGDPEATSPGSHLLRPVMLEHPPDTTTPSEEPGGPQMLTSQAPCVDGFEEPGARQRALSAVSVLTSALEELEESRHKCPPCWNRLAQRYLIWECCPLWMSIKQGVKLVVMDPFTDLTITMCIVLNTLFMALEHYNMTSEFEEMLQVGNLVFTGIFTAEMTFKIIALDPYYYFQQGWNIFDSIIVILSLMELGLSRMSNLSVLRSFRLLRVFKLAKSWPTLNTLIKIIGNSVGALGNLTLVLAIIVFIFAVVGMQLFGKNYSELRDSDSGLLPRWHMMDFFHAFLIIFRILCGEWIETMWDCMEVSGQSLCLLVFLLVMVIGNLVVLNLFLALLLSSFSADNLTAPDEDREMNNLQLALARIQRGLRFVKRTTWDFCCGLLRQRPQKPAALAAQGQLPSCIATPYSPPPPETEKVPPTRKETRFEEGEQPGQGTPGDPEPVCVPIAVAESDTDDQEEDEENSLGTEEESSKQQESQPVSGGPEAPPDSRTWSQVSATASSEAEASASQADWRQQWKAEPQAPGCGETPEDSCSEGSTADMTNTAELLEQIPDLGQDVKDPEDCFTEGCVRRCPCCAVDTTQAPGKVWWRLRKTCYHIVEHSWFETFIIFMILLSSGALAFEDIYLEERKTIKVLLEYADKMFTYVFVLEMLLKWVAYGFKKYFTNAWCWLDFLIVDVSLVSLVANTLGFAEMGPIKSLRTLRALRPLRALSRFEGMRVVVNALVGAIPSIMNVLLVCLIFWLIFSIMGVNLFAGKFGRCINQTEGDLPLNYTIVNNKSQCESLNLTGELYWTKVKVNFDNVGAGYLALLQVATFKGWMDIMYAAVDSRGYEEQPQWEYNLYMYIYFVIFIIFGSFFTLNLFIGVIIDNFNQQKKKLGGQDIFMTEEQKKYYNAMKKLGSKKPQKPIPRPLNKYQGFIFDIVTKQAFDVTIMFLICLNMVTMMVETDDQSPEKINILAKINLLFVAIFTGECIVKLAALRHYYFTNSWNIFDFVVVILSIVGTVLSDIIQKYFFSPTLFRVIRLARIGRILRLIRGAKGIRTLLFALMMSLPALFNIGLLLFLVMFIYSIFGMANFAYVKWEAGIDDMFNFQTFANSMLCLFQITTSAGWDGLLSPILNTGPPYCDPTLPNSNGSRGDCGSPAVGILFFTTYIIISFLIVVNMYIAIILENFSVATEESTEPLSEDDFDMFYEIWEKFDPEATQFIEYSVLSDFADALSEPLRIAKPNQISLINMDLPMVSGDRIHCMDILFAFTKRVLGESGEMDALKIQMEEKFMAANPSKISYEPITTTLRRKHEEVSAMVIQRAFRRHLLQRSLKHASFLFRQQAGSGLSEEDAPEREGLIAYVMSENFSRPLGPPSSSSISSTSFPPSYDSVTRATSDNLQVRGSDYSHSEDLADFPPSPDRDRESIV

For `O=S(=O)(Nc1ncccn1)c1ccc2c(c1)OCC[C@@H]2c1ccc(C(F)(F)F)cc1Cl` (racemic) [Example 104, (S/R)-4-(2-Chloro-4-(trifluoromethyl)phenyl)-N-(pyrimidin-2-yl)chroman-7-sulfonamide], the IC50 is 184 nM at Nav 1.7 and greater than 10 µM at Nav 1.5 (setting [1]).
Regarding `O=C(O)c1ccc(-c2cc(C(F)(F)F)ccc2[C@H]2CCOc3cc(S(=O)(=O)Nc4ncc(F)cn4)ccc32)cc1` [compound 190, (S&R)-2′-(7-(N-(5-fluoropyrimidin-2-yl)sulfamoyl)chroman-4-yl)-5′-(trifluoromethyl)-[1,1′-biphenyl]-4-carboxylic acid], the results for the half-inhibitory concentration (IC50) on Nav 1.7 and at Nav 1.5 (setting [1]) were 257 nM and greater than 10 µM, respectively.
For `Cc1nc(-c2cc(C(F)(F)F)ccc2[C@H]2CCOc3cc(S(=O)(=O)Nc4ncccn4)ccc32)ccc1F` (racemic) [Example-222, (R/S)-4-(2-(5-fluoro-6-methylpyridin-2-yl)-4-(trifluoromethyl)phenyl)-N-(pyrimidin-2-yl)chroman-7-sulfonamide], the IC50 at Nav 1.7 was found to be 63 nM. 10 µM produced 73% inhibition against Nav 1.5.
Turning to `CS(=O)(=O)CCc1cc(C(F)(F)F)ccc1[C@H]1CCOc2cc(S(=O)(=O)Nc3ncccn3)ccc21` [Example 84, (S&R)-4-(2-(2-(Methylsulfonyl)ethyl)-4-(trifluoromethyl)phenyl)-N-(pyrimidin-2-yl)chroman-7-sulfonamide], the concentration for half-maximal inhibition (IC50) at Nav 1.7 was 2580 nM; on Nav 1.5 (setting [1]), greater than 10 µM.
For the compound `CCCc1cc(C(F)(F)F)ccc1[C@@H]1CCOc2cc(S(=O)(=O)Nc3cccc(F)n3)ccc21` [Example-244, (S&R)—N-(6-fluoropyridin-2-yl)-4-(2-propyl-4-(trifluoromethyl)phenyl)chroman-7-sulfonamide], at Nav 1.7, the IC50 turned out to be 474 nM. Besides, on Nav 1.5, the “Nav1.5 % inhibition @ 10 μM” value was found to be 69%.
Regarding `O=S(=O)(Nc1ncccn1)c1ccc2c(c1)OCC[C@@H]2c1ccc(C(F)(F)F)cc1C1CCOCC1` [Example 110, (S&R)—N-(pyrimidin-2-yl)-4-(2-(tetrahydro-2H-pyran-4-yl)-4-(trifluoromethyl)phenyl)chroman-7-sulfonamide], the IC50 on Nav 1.7 came out at 156 nM; on Nav 1.5 (read-out: Nav1.5 IC50) it was 1.75 µM.
`COc1cc(C(F)(F)F)ccc1[C@H]1CCOc2cc(S(=O)(=O)Nc3ncccn3)ccc21` [Example-227, (S&R)-4-(2-methoxy-4-(trifluoromethyl)phenyl)-N-(pyrimidin-2-yl)chroman-7-sulfonamide]: the half-maximal inhibitory concentration (IC50) on Nav 1.7 was 177 nM; on Nav 1.5 (setting [1]), greater than 10 µM.
Consider `CS(=O)(=O)CCc1cc(C(F)(F)F)ccc1[C@@H]1CCOc2cc(S(=O)(=O)Nc3ccncn3)ccc21` [Example 87, (S&R)-4-(2-(2-(Methylsulfonyl)ethyl)-4-(trifluoromethyl)phenyl)-N-(pyrimidin-4-yl) chroman-7-sulfonamide], for which, at Nav 1.7, the “Nav1.7 inhibition @ 10 μM” value was determined as 58%. On Nav 1.5 (setting [1]), the IC50 was greater than 10 µM.
Consider `CS(=O)(=O)CCc1cc(C(F)(F)F)ccc1[C@H]1CCOc2cc(S(=O)(=O)Nc3cccc(F)n3)ccc21` [Example 82, (S&R)—N-(6-Fluoropyridin-2-yl)-4-(2-(2-(methylsulfonyl)ethyl)-4-(trifluoromethyl)phenyl)chroman-7-sulfonamide], for which the IC50 on Nav 1.7 was 20 nM; on Nav 1.5 (setting [1]) it was greater than 10 µM.
For `Cn1nccc1-c1cc(C(F)(F)F)ccc1[C@H]1CCOc2cc(S(=O)(=O)Nc3cccnc3F)ccc21` [Example 28, (S&R)—N-(2-fluoropyridin-3-yl)-4-(2-(1-methyl-1H-pyrazol-5-yl)-4-(trifluoromethyl)phenyl)chroman-7-sulfonamide], the 50% inhibitory concentration (IC50) was 1570 nM at Nav 1.7 and greater than 10 µM at Nav 1.5 (setting [1]).
Consider `O=S(=O)(Nc1cccnn1)c1ccc2c(c1)OCCC2c1ccc(C(F)(F)F)cc1-n1ccnn1` (stereo not drawn) [Example 53, (S&R)-4-(2-(1H-1,2,3-Triazol-1-yl)-4-(trifluoromethyl)phenyl)-N-(pyridazin-3-yl)chromane-7-sulfonamide], for which the “Nav1.7 inhibition @ 10 μM” value at Nav 1.7 turned out to be 70%. For the same compound, at Nav 1.5, the “Nav1.5 % inhibition @ 10 μM” value was determined as 44%.
Consider `CC(C)Oc1cccc(NS(=O)(=O)c2ccc3c(c2)OCC[C@@H]3c2ccc(C(F)(F)F)cc2-c2ccnn2C)n1` [Example 26, (S&R)—N-(6-isopropoxypyridin-2-yl)-4-(2-(1-methyl-1H-pyrazol-5-yl)-4-(trifluoromethyl)phenyl)chroman-7-sulfonamide], for which the values for the half-maximal inhibitory concentration (IC50) on Nav 1.7 and on Nav 1.5 (setting [1]) were 685 nM and greater than 10 µM, respectively.
`O=C(O)c1ccc(-c2cc(C(F)(F)F)ccc2[C@@H]2CCOc3cc(S(=O)(=O)Nc4ncc(F)cn4)ccc32)cc1` [Example-189, (S&R)-2′-(7-(N-(5-fluoropyrimidin-2-yl)sulfamoyl)chroman-4-yl)-5′-(trifluoromethyl)-[1,1′-biphenyl]-4-carboxylic acid]: the IC50 is 1810 nM on Nav 1.7 and greater than 10 µM at Nav 1.5 (setting [1]).
`Cc1ccnc(NS(=O)(=O)c2ccc3c(c2)OCC[C@@H]3c2ccc(C(F)(F)F)cc2-c2ccnn2C)n1` [Example 30, (S&R)-4-(2-(1-methyl-1H-pyrazol-5-yl)-4-(trifluoromethyl)phenyl)-N-(4-methylpyrimidin-2-yl)chroman-7-sulfonamide]: on Nav 1.7, the “Nav1.7 inhibition @ 10 μM” value was 72%. Also, at Nav 1.5 (setting [1]), the half-maximal inhibitory concentration (IC50) is greater than 10 µM.
For the compound `O=C1CCCN1c1cc(C(F)(F)F)ccc1[C@H]1CCOc2cc(S(=O)(=O)Nc3ccncn3)ccc21` (racemic) [Example 116, (R/S)-4-(2-(2-oxopyrrolidin-1-yl)-4-(trifluoromethyl)phenyl)-N-(pyrimidin-4-yl)chroman-7-sulfonamide], the IC50 on Nav 1.7 is 1960 nM; at Nav 1.5 (setting [1]) it was greater than 10 µM.
For `CC(C)Oc1ccc(-c2cc(C(F)(F)F)ccc2[C@@H]2CCOc3cc(S(=O)(=O)Nc4ncc(F)cn4)ccc32)cn1` [Example 99, (S&R)—N-(5-fluoropyrimidin-2-yl)-4-(2-(6-isopropoxypyridin-3-yl)-4-(trifluoromethyl)phenyl)chroman-7-sulfonamide], the IC50 at Nav 1.7 stood at 1060 nM. Besides, the “Nav1.5 % inhibition @ 10 μM” value at Nav 1.5 is 80%.
Take `CCOc1ccc(-c2cc(C(F)(F)F)ccc2[C@H]2CCOc3cc(S(=O)(=O)Nc4ncc(F)cn4)ccc32)cn1` [Example 102, (S&R)-4-(2-(6-ethoxypyridin-3-yl)-4-(trifluoromethyl)phenyl)-N-(5-fluoropyrimidin-2-yl)chroman-7-sulfonamide]: the values for the IC50 at Nav 1.7 and on Nav 1.5 (setting [1]) were 39 nM and greater than 10 µM, respectively.
For `COCCOc1cc(C(F)(F)F)ccc1[C@H]1CCOc2cc(S(=O)(=O)Nc3cccc(F)n3)ccc21` (racemic) [Example 129, (R/S)—N-(6-fluoropyridin-2-yl)-4-(2-(2-methoxyethoxy)-4-(trifluoromethyl)phenyl)chroman-7-sulfonamide], on Nav 1.7, the half-maximal inhibitory concentration (IC50) is 16 nM. On Nav 1.5, this compound came in with an inhibition at 10 µM of 62%.
Taken in the same sequence, the figures for `COCCc1cc(C(F)(F)F)ccc1[C@H]1CCOc2cc(S(=O)(=O)Nc3ncc(F)cn3)ccc21` (racemic) [Example 136, (R/S)—N-(5-fluoropyrimidin-2-yl)-4-(2-(2-methoxyethyl)-4-(trifluoromethyl)phenyl)chroman-7-sulfonamide] were 655 nM and 33%.
As to `O=C1COCCN1c1cc(C(F)(F)F)ccc1[C@H]1CCOc2cc(S(=O)(=O)Nc3ncccn3)ccc21` [Example-231, (S&R)-4-(2-(3-oxomorpholino)-4-(trifluoromethyl)phenyl)-N-(pyrimidin-2-yl)chroman-7-sulfonamide], the IC50 was 559 nM on Nav 1.7 and greater than 10 µM at Nav 1.5 (setting [1]).
`Cc1nc(-c2cc(C(F)(F)F)ccc2[C@H]2CCOc3cc(S(=O)(=O)Nc4ccncn4)ccc32)cs1` [Example 68, (S&R)-4-(2-(2-Methylthiazol-4-yl)-4-(trifluoromethyl)phenyl)-N-(pyrimidin-4-yl)chroman-7-sulfonamide]: the half-maximal inhibitory concentration (IC50) on Nav 1.7 was determined as 0.9 nM. Also, the “Nav1.5 % inhibition @ 10 μM” value at Nav 1.5 was 29%.
For `O=S(=O)(Nc1ccncn1)c1ccc2c(c1)OCC[C@@H]2c1ccc(C(F)(F)F)cc1OC1CCOCC1` [Example-173, (R&S)—N-(pyrimidin-4-yl)-4-(2-((tetrahydro-2H-pyran-4-yl)oxy)-4-(trifluoromethyl)phenyl)chroman-7-sulfonamide], the IC50 on Nav 1.7 turned out to be 12 nM. Further, the “Nav1.5 % inhibition @ 10 μM” value on Nav 1.5 came out at 63%.
In the case of `O=S(=O)(Nc1cccnn1)c1ccc2c(c1)OCC[C@H]2c1ccc(C(F)(F)F)cc1-c1ccc(F)nc1` [Example 41, (S&R)-4-(2-(6-Fluoropyridin-3-yl)-4-(trifluoromethyl)phenyl)-N-(pyridazin-3-yl)chromane-7-sulfonamide], the IC50 was 622 nM at Nav 1.7 and greater than 10 µM on Nav 1.5 (setting [1]).
For `O=S(=O)(Nc1ncccn1)c1ccc2c(c1)OCC[C@@H]2c1ccc(C(F)(F)F)cc1OCCCF` [Example-221, (S&R)-4-(2-(3-fluoropropoxy)-4-(trifluoromethyl)phenyl)-N-(pyrimidin-2-yl)chroman-7-sulfonamide], the half-inhibitory concentration (IC50) is 42 nM at Nav 1.7 and 1.47 µM at Nav 1.5 (read-out: Nav1.5 IC50).
`COCCCCc1cc(C(F)(F)F)ccc1[C@H]1CCOc2cc(S(=O)(=O)Nc3ccncn3)ccc21` (racemic) [Example 149, (R/S)-4-(2-(4-methoxybutyl)-4-(trifluoromethyl)phenyl)-N-(pyrimidin-4-yl)chroman-7-sulfonamide]: at Nav 1.7, the half-maximal inhibitory concentration (IC50) amounted to 21 nM. This compound also displayed an inhibition at 10 µM on Nav 1.5 of 58%.
For `COCCCOc1cc(C(F)(F)F)ccc1[C@H]1CCOc2cc(S(=O)(=O)Nc3ncccn3)ccc21` [Example 131, (S&R)-4-(2-(3-methoxypropoxy)-4-(trifluoromethyl)phenyl)-N-(pyrimidin-2-yl)chroman-7-sulfonamide], the 50% inhibitory concentration (IC50) on Nav 1.7 is 53 nM. The “Nav1.5 % inhibition @ 10 μM” value on Nav 1.5 stood at 66%.
Turning to `O=S(=O)(Nc1ccncn1)c1ccc2c(c1)OCC[C@H]2c1ccc(C(F)(F)F)cc1-c1ccc(F)cc1` [Example 47, (S&R)-4-(4′-Fluoro-5-(trifluoromethyl)-[1,1′-biphenyl]-2-yl)-N-(pyrimidin-4-yl)chromane-7-sulfonamide], the “Nav1.7 inhibition @ 10 μM” value at Nav 1.7 is on record as 64%. The half-inhibitory concentration (IC50) on Nav 1.5 (setting [1]) was greater than 10 µM.
